Results as given in ChEMBL document CHEMBL3272053, “(exo, exo)-2-Aryltropane-3-carboxylic esters, hypoglycemic agents with accompanying analgesic activity” (J Med Chem, 1978).
Calls of active or inactive are those of the source. The calls are words filed in the database; no cut-off is given here.

Key:
[1] = test system: Rattus norvegicus; test: Narcotic analgesic activity in fed Sprague-Dawley rat at 60 mg/kg, sc measured at 30 mins by D'Amour-Smith tail-flick test; format: functional; details: route subcutaneous
[2] = test system: Rattus norvegicus; test: Toxicity in Sprague-Dawley rat assessed as tremor at 60 mg/kg, sc; format: organism-based; set-up: dose 60 mg/kg, route subcutaneous; details: in vivo
[3] = test system: Rattus norvegicus; test: Toxicity in Sprague-Dawley rat assessed as convulsion at 60 mg/kg, sc; format: organism-based; set-up: dose 60 mg/kg, route subcutaneous; details: in vivo
[4] = test system: Mus musculus; test: Analgesic activity in sc dosed Swiss-Webster mouse assessed as reduction of acetylcholine-induced writhing; format: functional; details: Mus musculus, Swiss-Webster, sc; read-out: ED50
[5] = test system: Rattus norvegicus; test: Toxicity in Sprague-Dawley rat assessed as hyperactivity at 2.5 mg/kg, sc; format: organism-based; set-up: dose 2.5 mg/kg, route subcutaneous; details: in vivo
[6] = test system: Rattus norvegicus; test: Narcotic antagonist activity in sc dosed fed Sprague-Dawley rat assessed as concentration required to decrease phenazocine-induced analgesic activity by 50%; format: functional
[7] = test system: Rattus norvegicus; test: Hypoglycemic activity in Sprague-Dawley rat assessed as reduction of blood glucose level at 64 mg/kg, po by glucagon-impaired glucose disposal test relative to control; format: functional; set-up: scale not given: the % may be the effect or the level left
[8] = test system: Rattus norvegicus; test: Toxicity in Sprague-Dawley rat assessed as tremor at 240 mg/kg, po; format: organism-based; set-up: dose 240 mg/kg, route oral; details: in vivo
[9] = test system: Rattus norvegicus; test: Hypoglycemic activity in glucose loaded Sprague-Dawley rat assessed as reduction of blood glucose level at 94 mg/kg, po relative to control; format: functional; set-up: scale not given: the % may be the effect or the level left
[10] = test system: Rattus norvegicus; test: Toxicity in Sprague-Dawley rat assessed as rigidity at 240 mg/kg, po; format: organism-based; set-up: dose 240 mg/kg, route oral; details: in vivo
[11] = test system: Mus musculus; test: Analgesic activity in Swiss-Webster mouse assessed as reduction of acetylcholine-induced writhing at 50 mg/kg, po relative to control; format: functional; set-up: scale not given: the % may be the effect or the level left
[12] = test system: Rattus norvegicus; test: Narcotic analgesic activity in fasted Sprague-Dawley rat at 240 mg/kg, po measured at 60 mins by D'Amour-Smith tail-flick test relative to control; format: functional
[13] = test system: Rattus norvegicus; test: Narcotic analgesic activity in fasted Sprague-Dawley rat at 240 mg/kg, po measured at 15 mins by D'Amour-Smith tail-flick test relative to control; format: functional
[14] = test system: Rattus norvegicus; test: Hypoglycemic activity in Sprague-Dawley rat assessed as reduction of blood glucose level at 100 mg/kg, po by glucagon-impaired glucose disposal test in presence of opioid antagonist nalorphine; format: functional, organism-based; set-up: dose 100 mg/kg
[15] = test system: Rattus norvegicus; test: Hypoglycemic activity in glucose loaded Sprague-Dawley rat assessed as reduction of blood glucose level at 100 mg/kg, po measured at 1 hr relative to control; format: functional; set-up: scale not given: the % may be the effect or the level left
[16] = test system: Rattus norvegicus; test: Hypoglycemic activity in fasted Sprague-Dawley rat assessed as reduction of blood glucose level at 100 mg/kg, po measured at 2 hrs relative to control; format: functional; set-up: scale not given: the % may be the effect or the level left
[17] = test system: Rattus norvegicus; test: Toxicity in Sprague-Dawley rat at 240 mg/kg, po; format: organism-based; set-up: dose 240 mg/kg, route oral; details: in vivo
[18] = test system: Rattus norvegicus; test: Hypoglycemic activity in glucose loaded Sprague-Dawley rat assessed as reduction of glucose level per 100 mL of blood at 100 mg/kg, po measured at 2 hrs (reference value: 104 +/- 4 mg/100 mL); format: functional
[19] = test system: Mus musculus; test: Analgesic activity in po dosed Swiss-Webster mouse assessed as reduction of acetylcholine-induced writhing; format: functional
[20] = test system: Rattus norvegicus; test: Hypoglycemic activity in fasted Sprague-Dawley rat assessed as reduction of blood glucose level at 100 mg/kg, po measured at 1.5 hrs relative to control; format: functional; set-up: scale not given: the % may be the effect or the level left
[21] = test system: Rattus norvegicus; test: Hypoglycemic activity in glucose/glycogen loaded Sprague-Dawley rat assessed as reduction of glucose level per 100 mL of blood at 100 mg/kg, po measured at 2 hrs (reference value: 110 +/- 10 mg/100 mL); format: functional
[22] = test system: Rattus norvegicus; test: Hypoglycemic activity in Sprague-Dawley rat assessed as reduction of blood glucose level at 100 mg/kg, po by glucagon-impaired glucose disposal test in presence of microsomal enzyme inhibitor SKF 525-A; format: functional, organism-based; set-up: dose 100 mg/kg
[23] = test system: Rattus norvegicus; test: Hypoglycemic activity in Sprague-Dawley rat assessed as reduction of blood glucose level at 100 mg/kg, po by glucagon-impaired glucose disposal test in presence of (exo,endo)-methyl 8-methyl-2-phenyl-8-azabicyclo[3.2.1]octane-3-carboxylate; format: functional, organism-based; set-up: dose 100 mg/kg
[24] = test system: Rattus norvegicus; test: Narcotic analgesic activity in fasted Sprague-Dawley rat at 240 mg/kg, po measured within 15 mins in presence of (exo,endo)-methyl 8-methyl-2-phenyl-8-azabicyclo[3.2.1]octane-3-carboxylate; format: functional, organism-based; set-up: dose 240 mg/kg
[25] = test system: Rattus norvegicus; test: Hypoglycemic activity in Sprague-Dawley rat assessed as reduction of blood glucose level at 100 mg/kg, po by glucagon-impaired glucose disposal test relative to control; format: functional; set-up: scale not given: the % may be the effect or the level left
[26] = test system: Rattus norvegicus; test: Analgesic activity in po dosed rat assessed as reduction of intraarterial bradykinin-induced pain response; format: functional
[27] = test system: Rattus norvegicus; test: Hypoglycemic activity in glucose/glycogen loaded Sprague-Dawley rat assessed as reduction of blood glucose level at 100 mg/kg, po measured at 1 hr relative to control; format: functional; set-up: scale not given: the % may be the effect or the level left
[28] = test system: Rattus norvegicus; test: Hypoglycemic activity in glucose loaded Sprague-Dawley rat assessed as reduction of blood glucose level at 100 mg/kg, po measured at 0.5 hrs relative to control; format: functional; set-up: scale not given: the % may be the effect or the level left
[29] = test system: Rattus norvegicus; test: Hypoglycemic activity in fasted Sprague-Dawley rat assessed as reduction of blood glucose level at 100 mg/kg, po measured at 1 hr relative to control; format: functional; set-up: scale not given: the % may be the effect or the level left
[30] = test system: Rattus norvegicus; test: Hypoglycemic activity in fasted Sprague-Dawley rat assessed as reduction of blood glucose level at 100 mg/kg, po measured at 0.5 hrs relative to control; format: functional; set-up: scale not given: the % may be the effect or the level left
[31] = test system: Rattus norvegicus; test: Hypoglycemic activity in glucose/glycogen loaded Sprague-Dawley rat assessed as reduction of blood glucose level at 100 mg/kg, po measured at 1.5 hrs relative to control; format: functional; set-up: scale not given: the % may be the effect or the level left
[32] = test system: Rattus norvegicus; test: Hypoglycemic activity in glucose/glycogen loaded Sprague-Dawley rat assessed as reduction of blood glucose level at 100 mg/kg, po measured at 0.5 hrs relative to control; format: functional; set-up: scale not given: the % may be the effect or the level left
[33] = test system: Rattus norvegicus; test: Hypoglycemic activity in glucose loaded Sprague-Dawley rat assessed as reduction of blood glucose level at 100 mg/kg, po measured at 1.5 hrs relative to control; format: functional; set-up: scale not given: the % may be the effect or the level left
[34] = Drug metabolism in glucose loaded Sprague-Dawley rat urine assessed as formation of (7)- (exo,exo)-methyl 2-(thiophen-2-yl)-8-azabicyclo[3.2.1]octane-3-carboxylate hydrochloride at 20 mg, po administered 3 to 6 hrs measured for 24 hrs by TLC/mass spectrographic analysis; format: ADME, organism-based; details: in vivo
[35] = test system: Rattus norvegicus; test: Narcotic antagonist activity in fed Sprague-Dawley rat assessed as decrease in phenazocine-induced analgesic activity at 1 mg/kg, sc; format: functional, organism-based; set-up: dose 1 mg/kg
[36] = test system: Rattus norvegicus; test: Hypoglycemic activity in Sprague-Dawley rat assessed as reduction of blood glucose level at 87 mg/kg, po by glucagon-impaired glucose disposal test relative to control; format: functional; set-up: scale not given: the % may be the effect or the level left
[37] = test system: Rattus norvegicus; test: Narcotic antagonist activity in fed Sprague-Dawley rat assessed as decrease in phenazocine-induced analgesic activity at 80 mg/kg, sc; format: functional
[38] = test system: Rattus norvegicus; test: Toxicity in Sprague-Dawley rat assessed as tremor at 30 mg/kg, sc; format: organism-based; set-up: dose 30 mg/kg, route subcutaneous; details: in vivo
[39] = test system: Rattus norvegicus; test: Toxicity in Sprague-Dawley rat assessed as convulsion at 120 mg/kg, sc; format: organism-based; set-up: dose 120 mg/kg, route subcutaneous; details: in vivo
[40] = test system: Rattus norvegicus; test: Narcotic analgesic activity in fed Sprague-Dawley rat at 120 mg/kg, sc measured at 30 mins by D'Amour-Smith tail-flick test; format: functional; details: route subcutaneous

With COC(=O)[C@H]1C[C@H]2CC[C@H]([C@H]1c1ccccc1)N2CC1CC1.Cc1ccc(S(=O)(=O)O)cc1 the Activity [1] was under 20%, the Activity [2] was “Toxic” and the Activity [3] was “Toxic”. For the same compound, the ED50 [4] was 16 mg/kg, the Activity [5] was “Toxic” and the Activity [6] was 4.7 mg/kg. The Activity [7] was 20%.

For COC(=O)[C@H]1C[C@H]2CC[C@@H]3[C@H]1c1sccc1C[N+]23[O-], the Activity [8] was “Toxic”, the Activity [9] was under 20% and the Activity [10] was “Toxic”. For the same compound, the Activity [11] was 67%, the Activity [12] was 14% and the Activity [13] was 41%.

With CCCCCN1[C@@H]2CC[C@@H]1[C@@H](c1cccs1)[C@@H](C(=O)OC)C2.CS(=O)(=O)O the Activity [14] was “Active”, the Activity [15] was 61% and the Activity [16] was 33%. The Activity [17] was “Non-toxic”, the Activity [18] was 76 mg/kg and the ED50 [19] was 57 mg/kg. The Activity [20] was 39%, the Activity [21] was 77 mg/kg and the Activity [22] was “inactive”. For the same compound, the Activity [23] was “Active”, the Activity [24] was “inactive” and the Activity [25] was 60%. It also gave an ED50 [26] of 17 mg/kg, an Activity [27] of 60% and an Activity [28] of 67%. The Activity [29] was 41%, the Activity [30] was 42% and the Activity [31] was 52%. The Activity [13] was 71%, the Activity [32] was 60% and the Activity [33] was 33%. For the same compound, the Drug metabolism [34] was “metabolite_detected”.

In the case of CC(=O)[C@H]1C[C@H]2CC[C@H]([C@H]1c1ccccc1)N2C.Cl, the Activity [35] was “Active”, the Activity [36] was 32% and the ED50 [4] was 7 mg/kg. The Activity [37] was “Active”, the Activity [38] was “Toxic” and the Activity [39] was “Toxic”. For the same compound, the Activity [40] was under 20%.
